This is an account of results in patent US10799507B2, “5-(7H-pyrrolo[2,3-d]pyrimidin-4-yl)-5-azaspiro[2.5]octane-8-carboxylic acid derivatives as novel JAK kinase inhibitors” (LEO Pharma A/S, priority 2017, dated 2020).

What all share (format): biochemical
One experiment concerns the target JAK3 (Homo sapiens (Human), UniProt P52333). The experiment can be described thus: JAK kinase assay (HTRF), JAK3. As to conditions: catalytic domain, ATP at Km (2 μM). The protocol: (§1) Human baculovirus-expressed JAK1, 2, 3 and TYK2 were purchased from Carna Biosciences, Inc. All four purified enzymes contain only the catalytic domain. JAK1 (aa 850-1154) and TYK2 (aa 871-1187) are expressed with an N-terminally fused GST-tag, and JAK2 and JAK3 with an N-terminally fused His-tag.
(§2) Inhibition of phosphorylation of a synthetic peptide was measured in an HTRF-based assay using the TK substrate-Biotin from the Cisbio HTRFKinEASE TK kit. First, 2 μl of TK solution (TK substrate-biotin in kinase buffer [1× enzymatic buffer from HTRFKinEASE TK kit, 1 mM DTT]) is added to a plate containing 1 μl prediluted compound (final assay concentration DMSO: 0.75%). Then, 5 μl kinase-ATP mix (prepared in kinase buffer) is added to the wells and the plates are incubated at RT for 20-30 min. For all four kinases a concentration of ATP that corresponded to the Km for ATP was used. The final concentrations of buffers, substrate, kinase and ATP were: JAK1: 50 mM Hepes buffer pH 7.0, 0.01% BSA, 10 mM MgCl2, 1 mM DTT, 7 μM ATP, 50 nM SEB, 1 μM TK Substrate-Biotin and 5 ng JAK1; JAK2: 50 mM Hepes buffer pH 7.0, 0.01% BSA, 5 mM MgCl2, 1 mM DTT, 4 μM ATP, 1 μM TK Substrate-Biotin and 0.1 ng JAK2; JAK3: 50 mM Hepes buffer pH 7.0, 0.01% BSA, 5 mM MgCl2, 1 mM DTT, 2 μM ATP, 1 μM TK Substrate-Biotin and 0.3 ng JAK3; TYK2: 50 mM Hepes buffer pH 7.0, 0.01% BSA, 5 mM MgCl2, 1 mM DTT, 13 μM ATP, 50 nM SEB, 1 μM TK Substrate-Biotin and 0.8 ng TYK2. Thereafter, the kinase reaction is stopped by adding 4 μl detection mix (final concentrations: 50 mM Hepes buffer pH 7.0, 0.01% BSA, 0.8 M KF, 20 mM EDTA, 42 nM Streptavidin-XL665 and 1:400 STK Ab Cryptate) and the plates are incubated overnight in the dark. The HTRF signal is read using an Envision plate reader.
(§3) In Table 1 selected JAK kinase inhibitory activities are listed along with analytical tR and observed M+H^+ data (UPLC-MS method 7).

In the next experiment the target is JAK1 (Homo sapiens (Human), UniProt P23458). The experiment can be described thus: JAK kinase assay (HTRF), JAK1. The settings on record: catalytic domain, ATP at Km (7 μM). The protocol:
as §1, §2
Background: TR-FRET usually uses a lanthanide donor and a delayed reading to cut background.

The next experiment addresses JAK2 (Homo sapiens (Human), UniProt O60674). The experiment can be described thus: JAK kinase assay (HTRF), JAK2. As to conditions: catalytic domain, ATP at Km (4 μM). The protocol:
as §1, §2

In another experiment the target is TYK2 (Homo sapiens (Human), UniProt P29597). The experiment can be described thus: JAK kinase assay (HTRF), TYK2. As to conditions: catalytic domain, ATP at Km (13 μM). The protocol: as §1, §2, §3
TYK2, sequence (P29597 871-1187): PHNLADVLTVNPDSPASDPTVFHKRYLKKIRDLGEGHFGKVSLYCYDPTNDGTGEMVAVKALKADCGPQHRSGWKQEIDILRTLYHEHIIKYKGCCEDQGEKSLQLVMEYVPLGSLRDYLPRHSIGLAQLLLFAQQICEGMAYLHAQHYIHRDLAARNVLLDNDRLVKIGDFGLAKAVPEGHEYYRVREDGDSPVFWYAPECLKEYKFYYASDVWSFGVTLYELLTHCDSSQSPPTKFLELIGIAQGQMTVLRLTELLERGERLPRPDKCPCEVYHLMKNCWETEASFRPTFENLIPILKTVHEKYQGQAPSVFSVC

JAK1, sequence (P23458 850-1154): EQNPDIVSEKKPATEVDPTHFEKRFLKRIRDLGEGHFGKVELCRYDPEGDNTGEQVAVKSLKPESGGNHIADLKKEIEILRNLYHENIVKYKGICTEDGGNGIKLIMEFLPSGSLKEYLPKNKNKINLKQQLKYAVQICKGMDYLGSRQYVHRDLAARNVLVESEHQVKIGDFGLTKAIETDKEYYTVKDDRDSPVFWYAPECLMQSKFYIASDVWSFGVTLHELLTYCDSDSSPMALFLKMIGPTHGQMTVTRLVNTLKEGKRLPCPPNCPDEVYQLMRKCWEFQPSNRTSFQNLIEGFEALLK
JAK3, sequence (P52333 822-1111): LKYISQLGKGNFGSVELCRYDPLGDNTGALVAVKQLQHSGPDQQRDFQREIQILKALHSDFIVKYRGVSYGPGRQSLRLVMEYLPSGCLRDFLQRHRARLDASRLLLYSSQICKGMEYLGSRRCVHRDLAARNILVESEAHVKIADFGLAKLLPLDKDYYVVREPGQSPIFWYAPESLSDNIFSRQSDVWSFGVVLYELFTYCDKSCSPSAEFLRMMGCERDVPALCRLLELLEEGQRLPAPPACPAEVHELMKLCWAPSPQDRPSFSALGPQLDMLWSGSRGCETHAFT
JAK2, sequence (O60674 849-1124): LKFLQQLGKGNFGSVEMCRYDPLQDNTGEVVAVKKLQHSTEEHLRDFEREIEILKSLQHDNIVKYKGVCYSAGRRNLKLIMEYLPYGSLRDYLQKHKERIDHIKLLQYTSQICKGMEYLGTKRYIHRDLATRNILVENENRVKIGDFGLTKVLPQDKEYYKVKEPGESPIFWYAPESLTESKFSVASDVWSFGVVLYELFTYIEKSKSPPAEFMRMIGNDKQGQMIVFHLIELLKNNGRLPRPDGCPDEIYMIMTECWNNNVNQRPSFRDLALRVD

As for `COc1cncc([C@@H](C)NC(=O)C2CCN(c3ncnc4[nH]ccc34)CC23CC3)c1` (stereo partly drawn) [Example 144, N-[(1R)-1-(5-methoxy-3-pyridyl)ethyl]-5-(7H-pyrrolo[2,3-d]pyrimidin-4-yl)-5-azaspiro[2.5]octane-8-carboxamide], the 50% effective concentration (EC50) turned out to be 157 nM on JAK3, 48.5 nM on JAK1 and 80.6 nM at JAK2.

Consider `COc1cc(F)ccc1[C@@H](C)NC(=O)C1CCN(c2ncnc3[nH]ccc23)CC12CC2` (stereo partly drawn) [Example 131, N-[(1R)-1-(4-fluoro-2-methoxy-phenyl)ethyl]-5-(7H-pyrrolo[2,3-d]pyrimidin-4-yl)-5-azaspiro[2.5]octane-8-carboxamide], for which the figures for the concentration for a half-maximal effect (EC50) at JAK3, on JAK1 and on JAK2 were 247 nM, 24.6 nM and 30.3 nM, respectively.

For `C[C@@H](NC(=O)C1CCN(c2ncnc3[nH]ccc23)CC12CC2)c1cccc(F)c1` (stereo partly drawn) [Example 134, N-[(1R)-1-(3-fluorophenyl)ethyl]-5-(7H-pyrrolo[2,3-d]pyrimidin-4-yl)-5-azaspiro[2.5]octane-8-carboxamide], the values for the EC50 on JAK3, at JAK1 and on JAK2 were 171 nM, 32.8 nM and 80.6 nM, respectively.

As to `O=C(N[C@H](CO)C1CCCCC1)[C@H]1CCN(c2ncnc3[nH]ccc23)CC12CC2` [Example 132, (8S)-N-[(1S)-1-cyclohexyl-2-hydroxy-ethyl]-5-(7H-pyrrolo[2,3-d]pyrimidin-4-yl)-5-azaspiro[2.5]octane-8-carboxamide], the EC50 on JAK3 was 162 nM; on JAK1 it was 25.3 nM; on TYK2, 665 nM; at JAK2 it was 94.5 nM.

Take `CCc1cc(C#N)ccc1[C@@H](C)NC(=O)[C@H]1CCN(c2ncnc3[nH]ccc23)CC12CC2` [Example 121, (8S)-N-[(1R)-1-(4-cyano-2-ethyl-phenyl)ethyl]-5-(7H-pyrrolo[2,3-d]pyrimidin-4-yl)-5-azaspiro[2.5]octane-8-carboxamide]: the EC50 at JAK3 is 141 nM; on JAK1, 15.3 nM; at TYK2, 289 nM; on JAK2 it was 44.7 nM.

In the case of `Cc1ccc([C@H](O)[C@H](C)NC(=O)[C@H]2CCN(c3ncnc4[nH]ccc34)CC23CC3)cc1` [Example 73, (8S)-N-[(1S,2S)-2-hydroxy-1-methyl-2-(p-tolyl)ethyl]-5-(7H-pyrrolo[2,3-d]pyrimidin-4-yl)-5-azaspiro[2.5]octane-8-carboxamide], the EC50 worked out at 30.9 nM on JAK3, 6.1 nM on JAK1, 171 nM at TYK2 and 8.3 nM on JAK2.

As for `COc1cc(C#N)ccc1[C@H](CO)NC(=O)[C@H]1CCN(c2ncnc3[nH]ccc23)CC12CC2` [Example 120, (8S)-N-[(1R)-1-(4-cyano-2-methoxy-phenyl)-2-hydroxy-ethyl]-5-(7H-pyrrolo[2,3-d]pyrimidin-4-yl)-5-azaspiro[2.5]octane-8-carboxamide], the EC50 at JAK3 came out at 154 nM; on JAK1 it was 13.7 nM; at TYK2, 392 nM; at JAK2, 40.2 nM.

As for `N#Cc1ccc([C@H](O)CNC(=O)[C@@H]2CCN(c3ncnc4[nH]ccc34)CC23CC3)cc1` [Example 142, (8R)-N-[(2S)-2-(4-cyanophenyl)-2-hydroxy-ethyl]-5-(7H-pyrrolo[2,3-d]pyrimidin-4-yl)-5-azaspiro[2.5]octane-8-carboxamide], the EC50 on JAK3 was 278 nM; on JAK1, 42.7 nM; at JAK2 it was 179 nM.

In the case of `C[C@H](NC(=O)[C@H]1CCN(c2ncnc3[nH]ccc23)CC12CC2)[C@@H](O)c1cccc(F)c1` [Example 150, (8S)-N-[(1S,2S)-2-(3-fluorophenyl)-2-hydroxy-1-methyl-ethyl]-5-(7H-pyrrolo[2,3-d]pyrimidin-4-yl)-5-azaspiro[2.5]octane-8-carboxamide], the 50% effective concentration (EC50) came to 3.1 nM on JAK3, 2.7 nM at JAK1 and 21 nM on TYK2.

With `C[C@@H](NC(=O)C1CCN(c2ncnc3[nH]ccc23)CC12CC2)c1ccc(F)c(C#N)c1` (stereo partly drawn) [Example 123, N-[(1R)-1-(3-cyano-4-fluoro-phenyl)ethyl]-5-(7H-pyrrolo[2,3-d]pyrimidin-4-yl)-5-azaspiro[2.5]octane-8-carboxamide], the results for the EC50 at JAK3, at JAK1 and at JAK2 were 63.9 nM, 16.3 nM and 21.4 nM, respectively.

`COc1cccc([C@@H](C)NC(=O)C2CCN(c3ncnc4[nH]ccc34)CC23CC3)c1` (stereo partly drawn) [Example 139, N-[(1R)-1-(3-methoxyphenyl)ethyl]-5-(7H-pyrrolo[2,3-d]pyrimidin-4-yl)-5-azaspiro[2.5]octane-8-carboxamide]: the 50% effective concentration (EC50) on JAK3 worked out at 99.3 nM; on JAK1, 39.2 nM; at JAK2 it was 61.2 nM.

As to `COc1cc([C@@H](C)NC(=O)C2CCN(c3ncnc4[nH]ccc34)CC23CC3)ccc1F` (stereo partly drawn) [Example 143, N-[(1R)-1-(4-fluoro-3-methoxy-phenyl)ethyl]-5-(7H-pyrrolo[2,3-d]pyrimidin-4-yl)-5-azaspiro[2.5]octane-8-carboxamide], the concentration giving a half-maximal response (EC50) on JAK3 was 199 nM; at JAK1, 45.1 nM; on JAK2, 90.4 nM.

Turning to `C[C@@H](NC(=O)C1CCN(c2ncnc3[nH]ccc23)CC12CC2)c1ccc(F)c(F)c1` (stereo partly drawn) [Example 113, N-[(1R)-1-(3,4-difluorophenyl)ethyl]-5-(7H-pyrrolo[2,3-d]pyrimidin-4-yl)-5-azaspiro[2.5]octane-8-carboxamide], the concentration giving a half-maximal response (EC50) amounted to 51.2 nM at JAK3, 11.6 nM at JAK1 and 19.4 nM on JAK2.

With `COc1ccc([C@H](C)NC(=O)C2CCN(c3ncnc4[nH]ccc34)CC23CC3)cc1` (stereo partly drawn) [Example 66, N-[(1S)-1-(4-methoxyphenyl)ethyl]-5-(7H-pyrrolo[2,3-d]pyrimidin-4-yl)-5-azaspiro[2.5]octane-8-carboxamide], the EC50 at JAK3 worked out at 40.7 nM; at JAK1, 4.8 nM; on JAK2, 8.3 nM.

Take `C[C@@H](NC(=O)C1CCN(c2ncnc3[nH]ccc23)CC12CC2)c1cccc(C#N)c1` (stereo partly drawn) [Example 117, N-[(1R)-1-(3-cyanophenyl)ethyl]-5-(7H-pyrrolo[2,3-d]pyrimidin-4-yl)-5-azaspiro[2.5]octane-8-carboxamide]: the EC50 on JAK3 is 73.8 nM; at JAK1, 12.4 nM; on JAK2 it was 21.6 nM.

Consider `COc1ccc([C@@H](C)NC(=O)C2CCN(c3ncnc4[nH]ccc34)CC23CC3)cc1F` (stereo partly drawn) [Example 124, N-[(1R)-1-(3-fluoro-4-methoxy-phenyl)ethyl]-5-(7H-pyrrolo[2,3-d]pyrimidin-4-yl)-5-azaspiro[2.5]octane-8-carboxamide], for which the concentration giving a half-maximal response (EC50) on JAK3 amounted to 144 nM; at JAK1 it was 18.6 nM; at JAK2, 59.7 nM.

For `C[C@H](NC(=O)[C@H]1CCN(c2ncnc3[nH]ccc23)CC12CC2)[C@@H](O)c1ccccc1` [Example 152, (8S)-N-[(1S,2S)-2-hydroxy-1-methyl-2-phenyl-ethyl]-5-(7H-pyrrolo[2,3-d]pyrimidin-4-yl)-5-azaspiro[2.5]octane-8-carboxamide], the EC50 worked out at 5.8 nM on JAK3, 2.7 nM at JAK1 and 27.7 nM at TYK2.

As to `N#Cc1cccc(CNC(=O)C2CCN(c3ncnc4[nH]ccc34)CC23CC3)c1` (stereo not shown) [Example 70, N-[(3-cyanophenyl)methyl]-5-(7H-pyrrolo[2,3-d]pyrimidin-4-yl)-5-azaspiro[2.5]octane-8-carboxamide], the EC50 on JAK3 turned out to be 32.6 nM; at JAK1, 5.5 nM; on JAK2, 8.6 nM.

On to `CC(NC(=O)C1CCN(c2ncnc3[nH]ccc23)CC12CC2)c1ccc(F)cc1` (stereo not shown) [Example 61, N-[1-(4-fluorophenyl)ethyl]-5-(7H-pyrrolo[2,3-d]pyrimidin-4-yl)-5-azaspiro[2.5]octane-8-carboxamide], for which the half-maximal effective concentration (EC50) at JAK3 came out at 22.1 nM; on JAK1 it was 4.3 nM; on JAK2 it was 7.2 nM.

Consider `C[C@H](NC(=O)[C@H]1CCN(c2ncnc3[nH]ccc23)CC12CC2)[C@@H](O)c1cccnc1` [Example 151, (8S)-N-[(1S,2S)-2-hydroxy-1-methyl-2-(3-pyridyl)ethyl]-5-(7H-pyrrolo[2,3-d]pyrimidin-4-yl)-5-azaspiro[2.5]octane-8-carboxamide], for which the EC50 on JAK3 amounted to 29.7 nM; on JAK1 it was 10.9 nM; on TYK2, 184 nM.

A word on the EC50: it is the concentration that produces a half-maximal response. A low value points to greater potency.
